For eight compounds, IC50 results are on record in patent publication US7476754B2, “Biphenyl derived thiamides as calpain inhibitors” (Consejo Superior de Investigaciones Cientificas, priority 2004, dated 2009).

pIC50: −log10 of the molar value.

The experiment addresses T1, calpain I (Sus scrofa, UniProt P35750).
T1 construct: The calpain I from porcine erythrocytes; purchased CALBIOCHEM; host or cells: porcine erythrocytes (tissue-purified)
T1 sequence (P35750 1-714): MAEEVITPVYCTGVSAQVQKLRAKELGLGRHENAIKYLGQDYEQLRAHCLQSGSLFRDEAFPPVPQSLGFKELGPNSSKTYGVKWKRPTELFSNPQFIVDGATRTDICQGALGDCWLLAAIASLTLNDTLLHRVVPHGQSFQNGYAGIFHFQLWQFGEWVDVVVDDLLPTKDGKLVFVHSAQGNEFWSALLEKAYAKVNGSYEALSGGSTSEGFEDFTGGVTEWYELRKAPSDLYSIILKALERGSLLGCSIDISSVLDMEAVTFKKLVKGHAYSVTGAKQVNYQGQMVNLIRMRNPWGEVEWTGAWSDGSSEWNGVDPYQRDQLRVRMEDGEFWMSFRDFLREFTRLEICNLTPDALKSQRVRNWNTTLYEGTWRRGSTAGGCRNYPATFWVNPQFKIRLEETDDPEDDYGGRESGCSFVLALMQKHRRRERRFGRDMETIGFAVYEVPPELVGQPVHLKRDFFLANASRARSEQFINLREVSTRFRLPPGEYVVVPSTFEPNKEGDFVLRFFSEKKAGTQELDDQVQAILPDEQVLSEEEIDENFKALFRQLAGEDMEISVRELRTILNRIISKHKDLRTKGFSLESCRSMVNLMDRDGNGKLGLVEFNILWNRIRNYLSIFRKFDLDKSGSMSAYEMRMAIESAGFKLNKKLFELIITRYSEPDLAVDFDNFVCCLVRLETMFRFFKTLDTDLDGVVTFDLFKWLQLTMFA
T1 sequence (P04574 1-266 partner): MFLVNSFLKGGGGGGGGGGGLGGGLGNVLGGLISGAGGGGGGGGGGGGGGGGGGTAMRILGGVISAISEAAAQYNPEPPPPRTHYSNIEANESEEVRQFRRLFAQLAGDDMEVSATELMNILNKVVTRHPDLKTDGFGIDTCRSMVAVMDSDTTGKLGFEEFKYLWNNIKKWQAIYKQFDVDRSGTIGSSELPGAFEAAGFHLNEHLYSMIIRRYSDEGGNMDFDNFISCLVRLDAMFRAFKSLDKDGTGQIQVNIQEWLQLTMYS
Kind of experiment: Enzyme activity test: inhibition of calpain (EnzCheck protease assay kit, BODIPY FL casein, fluorescence). The experiment is classed as biochemical. To be noted: calpain I from porcine erythrocytes; BODIPY FL casein substrate; Tris-HCl pH 7.8; triplicate. The source says: The calpain inhibition capacity has been quantified in terms of the value of IC50, which is defined as the concentration of inhibitor that reduces the catalytic activity of an enzyme by half. The lower the value of IC50, the more powerful the inhibitor. Inhibition results on calpain I (the most relevant from a physiological point of view) of some compounds of the present invention are shown in table 1 and in FIG. 1. Given that calpain II, also known as milli-calpain, needs a greater amount of calcium for activation, it might not possibly have such a relevant physiological role since such a concentration of calcium would cause cell death before the milli-calpain could become activated. For this reason, the inhibition tests have been performed for calpain I, though they can be extrapolated for calpain II.
The calpain inhibition capacity has been quantified in terms of the value of IC50, which is defined as the concentration of inhibitor that reduces the catalytic activity of an enzyme by half. The lower the value of IC50, the more powerful the inhibitor. Inhibition results on calpain I (the most relevant from a physiological point of view) of some compounds of the present invention are shown in table 1 and in FIG. 1.
In order to carry out the inhibition test on calpains, we used the EnzCheck® Protease Assay Kit E-338 from Molecular Probes. This kit contains casein marked with BODIPY FL®, freeze-dried from phosphate buffer. Also used as a digestion buffer was Tris-HCl at pH 7.8, containing 2 mM of sodium azide. The calpain I from porcine erythrocytes or calpain II from porcine kidney that were used are commercial products from CALBIOCHEM®. The enzyme stock solution contained 20 mM of imidazol-HCl buffer, pH 6.8, 1 mM EDTA, 1 mM EGTA, 5 mM β-mercaptoethanol, 30% in glycerol.
The synthetic inhibitors were dissolved in 250 μL of DMSO. The tests were conducted on 96-well microplates in a final volume of 200 μL. In order to carry out the test, aliquots of stock solution of calpain were added to 150 μL of a 10 μg/μL solution in digestion buffer in order to obtain a final concentration of 50 ng/mL of enzyme. Minimum quantities were added, between 5 and 20 μL of inhibitor solution in DMSO, previously diluted in order to achieve the desired final concentration of inhibitor, and digestion buffer was added until a volume of 190 μL was achieved. The test commenced by adding 10 μL of 0.05 M CaCl2 solution. For each inhibitor, separate measurements excluding inhibitor, calpain and calcium solution were taken as blanks. All measurements were made in triplicate.
The fluorescence measurements were made in a SPECTRAFLUOR TECAN Corp 93382 spectrum fluorimeter, exciting at 485 nm and taking the reading at 530 nm. The measurement was made over 20 cycles until the measurement of all wells was completed. Stirring was orbital type and took place each cycle.
Consider `COC(=O)[C@H](Cc1ccccc1)NC(=S)c1ccccc1-c1ccccc1C(=S)N[C@@H](Cc1ccccc1)C(=O)OC` [Compound 1, Methyl (S,S)-3-phenyl-2-{[2′-(2-phenyl-1-methoxycarbonyl-ethylthio-carbamoyl)-biphenyl-2-carbothiol]-amino}—propionate], for which the pIC50 is 4.03. The figure for `COC(=O)[C@H](Cc1ccccc1)NC(=O)c1ccccc1-c1ccccc1C(=S)N[C@@H](Cc1ccccc1)C(=O)OC` [Compound 2, Methyl (S,S)-3-phenyl-2-{[2′-(2-phenyl-1-methoxycarbonyl-ethylthio-carbamoyl)-biphenyl-2-carbonyl]-amino}-propionate] is 4.20; for `COC(=O)[C@H](Cc1c[nH]c2ccccc12)NC(=S)c1ccccc1-c1ccccc1C(=S)N[C@@H](Cc1c[nH]c2ccccc12)C(=O)OC` [Compound 3, Methyl (S,S)-3-(1H-Indol-3-yl)-2-{[2′-(2-(1H-Indol-3-yl)-1-methoxycarbonyl-ethylthiocarbamoyl)-biphenyl-2-carbothioyl]-amino}-propionate] it is 10.42. Take `COC(=O)[C@H](Cc1c[nH]c2ccccc12)NC(=O)c1ccccc1-c1ccccc1C(=S)N[C@@H](Cc1c[nH]c2ccccc12)C(=O)OC` [Compound 4, Methyl (S,S)-3-(1H-Indol-3-yl)-2-{[2′-(2-(1H-Indol-3-yl)-1-methoxycarbonyl-ethylthiocarbamoyl)-biphenyl-2-carbonyl]-amino}-propionate]: the pIC50 is 7.16. The figure for `COC(=O)[C@@H](NC(=S)c1ccccc1-c1ccccc1C(=S)N[C@H](C(=O)OC)C(C)C)C(C)C` [Compound 5, Methyl (S,S)-2-{[2′-(1-methoxycarbonyl-2-methyl-propylthiocarbamoyl)-biphenyl-2-carbothioyl]-amino}-3-methyl-butyrate] is 7.15; for `COC(=O)[C@@H](NC(=O)c1ccccc1-c1ccccc1C(=S)N[C@H](C(=O)OC)C(C)C)C(C)C` [Compound 6, Methyl (S,S)-2-{[2′-(1-methoxycarbonyl-2-methyl-propylthiocarbamoyl)-biphenyl-2-carbonyl]-amino}-3-methyl-butyrate] it is 10.28; for `COC(=O)[C@H](Cc1ccc(O)cc1)NC(=S)c1ccccc1-c1ccccc1C(=S)N[C@@H](Cc1ccc(O)cc1)C(=O)OC` [Compound 7] it is 6.10. Compound `COC(=O)[C@H](Cc1ccc(O)cc1)NC(=O)c1ccccc1-c1ccccc1C(=S)N[C@@H](Cc1ccc(O)cc1)C(=O)OC` [Compound 8] showed a pIC50 of 4.92.
